Values of other authors as cited in publication PMC3783256 (Marine Drugs, 2004).
pEC50: −log10 of the molar value.

Target: RyR1-FKBP12 complex (Oryctolagus cuniculus, UniProt P11716)
Details: read-out: EC50, weak agonists of the receptor; ref 8a

Chain of RyR1-FKBP12 complex (P11716 whole entry): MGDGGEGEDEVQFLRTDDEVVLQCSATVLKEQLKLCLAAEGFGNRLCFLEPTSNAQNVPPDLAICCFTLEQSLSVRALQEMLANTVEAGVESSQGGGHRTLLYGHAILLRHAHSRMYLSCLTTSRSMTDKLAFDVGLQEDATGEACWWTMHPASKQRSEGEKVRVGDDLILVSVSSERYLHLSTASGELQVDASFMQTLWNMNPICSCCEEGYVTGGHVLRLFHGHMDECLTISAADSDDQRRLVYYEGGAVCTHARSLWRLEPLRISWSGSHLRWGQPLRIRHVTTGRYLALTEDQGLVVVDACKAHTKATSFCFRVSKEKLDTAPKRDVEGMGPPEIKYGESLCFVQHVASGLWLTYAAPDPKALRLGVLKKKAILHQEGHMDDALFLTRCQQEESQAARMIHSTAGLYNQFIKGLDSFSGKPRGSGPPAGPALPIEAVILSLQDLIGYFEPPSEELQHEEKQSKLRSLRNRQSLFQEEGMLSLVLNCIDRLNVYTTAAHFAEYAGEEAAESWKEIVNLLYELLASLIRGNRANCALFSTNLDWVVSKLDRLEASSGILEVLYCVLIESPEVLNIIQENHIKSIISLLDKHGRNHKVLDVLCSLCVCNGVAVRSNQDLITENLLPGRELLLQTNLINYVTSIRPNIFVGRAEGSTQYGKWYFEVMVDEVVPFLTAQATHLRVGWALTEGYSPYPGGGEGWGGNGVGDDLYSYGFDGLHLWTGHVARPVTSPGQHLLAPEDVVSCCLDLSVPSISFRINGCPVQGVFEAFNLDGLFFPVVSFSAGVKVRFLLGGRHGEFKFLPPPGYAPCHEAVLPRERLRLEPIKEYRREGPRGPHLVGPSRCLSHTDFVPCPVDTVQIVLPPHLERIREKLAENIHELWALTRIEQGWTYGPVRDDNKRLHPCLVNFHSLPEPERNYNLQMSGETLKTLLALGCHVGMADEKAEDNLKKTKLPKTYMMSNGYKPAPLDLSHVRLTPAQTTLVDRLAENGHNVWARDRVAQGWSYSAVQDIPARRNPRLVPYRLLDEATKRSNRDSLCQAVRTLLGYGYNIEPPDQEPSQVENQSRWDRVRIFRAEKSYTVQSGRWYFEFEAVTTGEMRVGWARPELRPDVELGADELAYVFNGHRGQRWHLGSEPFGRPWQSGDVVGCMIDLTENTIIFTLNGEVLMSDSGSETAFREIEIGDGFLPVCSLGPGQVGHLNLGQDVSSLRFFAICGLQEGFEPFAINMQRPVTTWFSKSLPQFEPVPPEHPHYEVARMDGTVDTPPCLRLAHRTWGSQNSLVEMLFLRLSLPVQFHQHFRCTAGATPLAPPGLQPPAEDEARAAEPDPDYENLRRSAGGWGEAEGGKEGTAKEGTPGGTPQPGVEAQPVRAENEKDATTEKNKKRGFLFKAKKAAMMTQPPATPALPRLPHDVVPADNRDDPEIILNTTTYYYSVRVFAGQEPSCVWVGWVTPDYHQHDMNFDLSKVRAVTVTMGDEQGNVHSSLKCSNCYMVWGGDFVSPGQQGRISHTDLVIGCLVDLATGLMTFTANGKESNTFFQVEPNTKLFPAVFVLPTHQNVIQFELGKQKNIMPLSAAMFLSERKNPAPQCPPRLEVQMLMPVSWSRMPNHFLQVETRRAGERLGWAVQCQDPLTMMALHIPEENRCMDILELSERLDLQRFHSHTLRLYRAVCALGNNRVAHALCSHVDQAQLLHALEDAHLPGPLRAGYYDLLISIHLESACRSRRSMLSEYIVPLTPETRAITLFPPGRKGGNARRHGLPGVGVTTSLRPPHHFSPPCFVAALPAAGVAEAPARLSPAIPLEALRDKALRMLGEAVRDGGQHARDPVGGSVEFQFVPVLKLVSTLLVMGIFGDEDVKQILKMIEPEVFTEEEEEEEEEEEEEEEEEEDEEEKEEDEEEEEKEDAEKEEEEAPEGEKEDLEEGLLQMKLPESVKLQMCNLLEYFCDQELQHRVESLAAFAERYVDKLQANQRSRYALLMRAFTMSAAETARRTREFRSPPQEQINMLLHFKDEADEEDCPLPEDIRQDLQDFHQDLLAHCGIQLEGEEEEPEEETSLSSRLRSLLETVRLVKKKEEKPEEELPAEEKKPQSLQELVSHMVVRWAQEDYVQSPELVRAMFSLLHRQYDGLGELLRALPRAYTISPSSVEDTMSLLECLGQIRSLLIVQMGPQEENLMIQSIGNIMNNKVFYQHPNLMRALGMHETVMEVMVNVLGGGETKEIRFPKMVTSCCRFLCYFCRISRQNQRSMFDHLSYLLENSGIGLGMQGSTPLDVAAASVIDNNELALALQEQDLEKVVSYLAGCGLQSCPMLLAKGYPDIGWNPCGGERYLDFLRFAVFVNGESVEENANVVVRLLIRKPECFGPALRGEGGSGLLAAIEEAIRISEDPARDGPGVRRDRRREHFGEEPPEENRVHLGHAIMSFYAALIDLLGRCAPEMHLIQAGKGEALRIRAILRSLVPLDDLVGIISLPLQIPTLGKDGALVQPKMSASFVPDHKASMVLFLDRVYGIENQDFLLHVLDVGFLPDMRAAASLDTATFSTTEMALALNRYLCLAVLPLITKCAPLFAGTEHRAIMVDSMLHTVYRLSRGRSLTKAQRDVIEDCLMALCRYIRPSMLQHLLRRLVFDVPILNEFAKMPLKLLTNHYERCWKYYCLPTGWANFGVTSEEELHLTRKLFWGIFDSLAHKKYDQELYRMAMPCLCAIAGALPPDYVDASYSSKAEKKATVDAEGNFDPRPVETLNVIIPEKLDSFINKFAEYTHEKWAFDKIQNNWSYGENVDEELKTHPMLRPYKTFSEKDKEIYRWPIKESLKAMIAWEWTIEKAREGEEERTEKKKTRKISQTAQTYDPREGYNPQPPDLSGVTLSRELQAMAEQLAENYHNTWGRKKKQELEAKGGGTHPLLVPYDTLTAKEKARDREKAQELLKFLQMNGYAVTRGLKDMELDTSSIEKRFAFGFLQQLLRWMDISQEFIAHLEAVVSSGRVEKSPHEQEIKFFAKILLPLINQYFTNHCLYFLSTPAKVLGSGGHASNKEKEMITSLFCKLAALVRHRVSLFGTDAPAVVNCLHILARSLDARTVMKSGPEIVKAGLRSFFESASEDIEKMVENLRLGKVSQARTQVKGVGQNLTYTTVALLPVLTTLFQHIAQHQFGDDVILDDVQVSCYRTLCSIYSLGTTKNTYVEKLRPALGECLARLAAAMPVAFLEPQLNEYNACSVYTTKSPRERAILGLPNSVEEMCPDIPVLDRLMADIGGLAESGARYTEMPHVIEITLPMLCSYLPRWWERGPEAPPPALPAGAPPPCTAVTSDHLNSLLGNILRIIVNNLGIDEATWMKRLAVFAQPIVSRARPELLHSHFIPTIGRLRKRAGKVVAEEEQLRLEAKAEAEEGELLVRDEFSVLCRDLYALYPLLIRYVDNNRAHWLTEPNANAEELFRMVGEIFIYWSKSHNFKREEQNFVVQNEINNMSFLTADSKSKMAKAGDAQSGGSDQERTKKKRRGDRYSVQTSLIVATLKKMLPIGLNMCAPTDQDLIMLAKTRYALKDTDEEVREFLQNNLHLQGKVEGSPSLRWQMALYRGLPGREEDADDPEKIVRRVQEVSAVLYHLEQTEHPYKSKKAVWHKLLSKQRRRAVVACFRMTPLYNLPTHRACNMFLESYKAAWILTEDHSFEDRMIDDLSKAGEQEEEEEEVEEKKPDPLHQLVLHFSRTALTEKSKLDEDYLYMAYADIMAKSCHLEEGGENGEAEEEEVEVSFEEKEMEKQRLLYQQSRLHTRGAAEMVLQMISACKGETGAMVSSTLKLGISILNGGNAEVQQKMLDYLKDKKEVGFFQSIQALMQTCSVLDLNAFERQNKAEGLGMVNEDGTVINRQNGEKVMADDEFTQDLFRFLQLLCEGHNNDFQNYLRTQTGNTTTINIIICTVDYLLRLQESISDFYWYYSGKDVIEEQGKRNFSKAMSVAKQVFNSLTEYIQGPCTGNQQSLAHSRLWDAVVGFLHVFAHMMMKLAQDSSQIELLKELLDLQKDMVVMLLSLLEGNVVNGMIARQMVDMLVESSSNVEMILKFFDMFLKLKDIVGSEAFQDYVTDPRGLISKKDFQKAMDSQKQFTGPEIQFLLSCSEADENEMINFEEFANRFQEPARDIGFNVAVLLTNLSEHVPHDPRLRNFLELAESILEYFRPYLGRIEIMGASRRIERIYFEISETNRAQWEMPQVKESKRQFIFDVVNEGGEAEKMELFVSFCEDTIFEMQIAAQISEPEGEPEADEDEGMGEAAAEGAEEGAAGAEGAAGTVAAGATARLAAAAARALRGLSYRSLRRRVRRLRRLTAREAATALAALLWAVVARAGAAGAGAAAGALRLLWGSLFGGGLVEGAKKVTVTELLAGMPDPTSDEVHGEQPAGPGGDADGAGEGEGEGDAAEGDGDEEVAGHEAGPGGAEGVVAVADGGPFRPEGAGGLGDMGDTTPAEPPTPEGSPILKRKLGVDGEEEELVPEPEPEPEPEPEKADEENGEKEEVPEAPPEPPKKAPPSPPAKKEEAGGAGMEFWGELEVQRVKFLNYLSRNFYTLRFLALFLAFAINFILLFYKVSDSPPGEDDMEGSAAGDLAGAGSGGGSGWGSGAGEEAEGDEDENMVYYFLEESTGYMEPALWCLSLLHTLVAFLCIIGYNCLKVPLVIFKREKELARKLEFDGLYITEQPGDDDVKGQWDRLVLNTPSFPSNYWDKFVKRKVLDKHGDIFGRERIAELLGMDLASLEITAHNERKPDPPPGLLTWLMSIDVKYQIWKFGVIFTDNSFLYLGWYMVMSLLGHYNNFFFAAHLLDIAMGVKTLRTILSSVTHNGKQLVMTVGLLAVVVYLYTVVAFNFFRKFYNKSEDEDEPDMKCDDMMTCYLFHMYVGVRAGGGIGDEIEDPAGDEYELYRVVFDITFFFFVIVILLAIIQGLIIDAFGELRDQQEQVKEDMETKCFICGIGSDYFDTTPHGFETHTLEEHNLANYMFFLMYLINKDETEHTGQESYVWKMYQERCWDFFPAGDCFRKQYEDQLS
Chain of RyR1-FKBP12 complex (P62943 2-108 partner limits assumed): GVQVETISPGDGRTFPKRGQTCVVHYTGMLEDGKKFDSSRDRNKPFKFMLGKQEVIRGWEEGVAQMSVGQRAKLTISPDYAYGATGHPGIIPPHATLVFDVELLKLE

- pEC50: 4.87
Substance: 15,34-O-di-sulfatobastadin-7
